# Source: ChEMBL document CHEMBL4725357, “Elucidating the Structural Requirement of Uridylpeptide Antibiotics for Antibacterial Activity” (J Med Chem, 2020)
# Tests used:
# [1] = tested on: Pseudomonas aeruginosa; assay: Antibacterial activity against Pseudomonas aeruginosa isolate 1483 incubated for 18 hrs by CLSI based broth microdilution method; type: functional
# [2] = tested on: Pseudomonas aeruginosa; assay: Antibacterial activity against Pseudomonas aeruginosa serotype G IID1020 incubated for 18 hrs by CLSI based broth microdilution method; type: functional
# [3] = tested on: Pseudomonas aeruginosa; assay: Antibacterial activity against Pseudomonas aeruginosa serotype H IID1009 incubated for 18 hrs by CLSI based broth microdilution method; type: functional
# [4] = tested on: Pseudomonas aeruginosa; assay: Antibacterial activity against Pseudomonas aeruginosa serotype C IID1021 incubated for 18 hrs by CLSI based broth microdilution method; type: functional
# [5] = tested on: HepG2; assay: Cytotoxicity against human HepG2 cells after 24 hrs by CCK-8 assay; type: cell-based; conditions: HepG2, 24 h
# [6] = tested on: Pseudomonas aeruginosa; assay: Antibacterial activity against Pseudomonas aeruginosa serotype F IID1006 incubated for 18 hrs by CLSI based broth microdilution method; type: functional
# [7] = tested on: Pseudomonas aeruginosa; assay: Antibacterial activity against Pseudomonas aeruginosa serotype B IID1013 incubated for 18 hrs by CLSI based broth microdilution method; type: functional
# [8] = tested on: Pseudomonas aeruginosa; assay: Antibacterial activity against Pseudomonas aeruginosa serotype B IID5004 incubated for 18 hrs by CLSI based broth microdilution method; type: functional
# [9] = tested on: Pseudomonas aeruginosa; assay: Antibacterial activity against Pseudomonas aeruginosa serotype K IID1012 incubated for 18 hrs by CLSI based broth microdilution method; type: functional
# [10] = tested on: Pseudomonas aeruginosa; assay: Antibacterial activity against Pseudomonas aeruginosa serotype E IID1130 incubated for 18 hrs by CLSI based broth microdilution method; type: functional
# [11] = tested on: Pseudomonas aeruginosa; assay: Antibacterial activity against Pseudomonas aeruginosa serotype L IID5141 incubated for 18 hrs by CLSI based broth microdilution method; type: functional
# [12] = Inhibition of Staphylococcus aureus MraY using UDPMurNAc-dansylpentapeptide as substrate incubated for 3 hrs by fluorescence method
# [13] = tested on: Pseudomonas aeruginosa; assay: Antibacterial activity against Pseudomonas aeruginosa serotype J IID1011 incubated for 18 hrs by CLSI based broth microdilution method; type: functional
# [14] = tested on: Pseudomonas aeruginosa; assay: Antibacterial activity against Pseudomonas aeruginosa isolate 2867 incubated for 18 hrs by CLSI based broth microdilution method; type: functional
# [15] = tested on: Pseudomonas aeruginosa; assay: Antibacterial activity against Pseudomonas aeruginosa serotype D IID1004 incubated for 18 hrs by CLSI based broth microdilution method; type: functional
# [16] = Inhibition of Staphylococcus aureus MraY using UDPMurNAc-dansylpentapeptide as substrate incubated for 3 to 4 hrs by fluorescence method
# [17] = tested on: Pseudomonas aeruginosa; assay: Antibacterial activity against Pseudomonas aeruginosa isolate 9728b incubated for 18 hrs by CLSI based broth microdilution method; type: functional
# [18] = tested on: Pseudomonas aeruginosa; assay: Antibacterial activity against Pseudomonas aeruginosa isolate 1485 incubated for 18 hrs by CLSI based broth microdilution method; type: functional
# [19] = tested on: Pseudomonas aeruginosa; assay: Antibacterial activity against Pseudomonas aeruginosa PAO1 incubated for 18 hrs by CLSI based broth microdilution method; type: functional
# [20] = tested on: Pseudomonas aeruginosa; assay: Antibacterial activity against Pseudomonas aeruginosa ATCC 27853 incubated for 18 hrs by CLSI based broth microdilution method; type: functional
# [21] = tested on: Pseudomonas aeruginosa; assay: Antibacterial activity against Pseudomonas aeruginosa serotype B IID1002 incubated for 18 hrs by CLSI based broth microdilution method; type: functional
# [22] = tested on: Pseudomonas aeruginosa; assay: Antibacterial activity against Pseudomonas aeruginosa serotype A IID1001 incubated for 18 hrs by CLSI based broth microdilution method; type: functional
# [23] = tested on: Pseudomonas aeruginosa; assay: Antibacterial activity against Pseudomonas aeruginosa serotype M IID5018 incubated for 18 hrs by CLSI based broth microdilution method; type: functional
# [24] = tested on: Pseudomonas aeruginosa; assay: Antibacterial activity against Pseudomonas aeruginosa serotype M IID1015 incubated for 18 hrs by CLSI based broth microdilution method; type: functional
# [25] = tested on: Pseudomonas aeruginosa; assay: Antibacterial activity against Pseudomonas aeruginosa serotype B IID1007 incubated for 18 hrs by CLSI based broth microdilution method; type: functional
# [26] = tested on: Pseudomonas aeruginosa; assay: Antibacterial activity against Pseudomonas aeruginosa serotype I IID1010 incubated for 18 hrs by CLSI based broth microdilution method; type: functional
# [27] = tested on: Pseudomonas aeruginosa; assay: Antibacterial activity against Pseudomonas aeruginosa isolate 2931 incubated for 18 hrs by CLSI based broth microdilution method; type: functional
# [28] = tested on: Pseudomonas aeruginosa; assay: Antibacterial activity against multidrug-resistant Pseudomonas aeruginosa MDRP62 incubated for 18 hrs by CLSI based broth microdilution method; type: functional
# [29] = tested on: Pseudomonas aeruginosa; assay: Antibacterial activity against Pseudomonas aeruginosa incubated for 18 hrs by CLSI based broth microdilution method; type: functional
# [30] = Substrate activity at NppA1A2BCD assessed as antibacterial activity against Pseudomonas aeruginosa PAO1 PW4181; type: ADME; conditions: pseudomonas aeruginosa pao1, 720 h; time 30 day
# [31] = Substrate activity at NppA1A2BCD assessed as antibacterial activity against Pseudomonas aeruginosa PAO1 PW4182; type: ADME; conditions: pseudomonas aeruginosa pao1, 720 h; time 30 day
# [32] = Substrate activity at NppA1A2BCD assessed as antibacterial activity against mureidomycin-resistant Pseudomonas aeruginosa PAO1 harboring NppA1A2BCD mutant measured at day 1 post mureidomycin-challenge; type: ADME
# [33] = tested on: Pseudomonas aeruginosa; assay: Resistance index, ratio of MIC for Pseudomonas aeruginosa PAO1 incubated overnight to MIC for Pseudomonas aeruginosa PAO1 incubated for 18 hrs; type: functional
# [34] = Substrate activity at NppA1A2BCD assessed as antibacterial activity against mureidomycin-resistant Pseudomonas aeruginosa PAO1 harboring NppA1A2BCD mutant measured at day 2 post mureidomycin-challenge; type: ADME
# [35] = Substrate activity at NppA1A2BCD assessed as antibacterial activity against mureidomycin-resistant Pseudomonas aeruginosa PAO1 harboring NppA1A2BCD mutant measured at day 30 post mureidomycin-challenge; type: ADME
smiles,measurement,setting,value
C[C@H](N)C(=O)N(C)[C@@H](C)[C@H](NC(=O)[C@H](C)NC(=O)N[C@@H](Cc1c[nH]c2ccccc12)C(=O)O)C(=O)N/C=C1\O[C@@H](n2ccc(=O)[nH]c2=O)[C@H](O)[C@@H]1O,MIC,[1],> 128 µg/mL
same,MIC,[2],> 128 µg/mL
same,MIC,[3],32 µg/mL
same,MIC,[4],16 µg/mL
same,IC50,[5],> 100000 nM
same,MIC,[6],> 128 µg/mL
same,MIC,[7],> 128 µg/mL
same,MIC,[8],64 µg/mL
same,MIC,[9],64 µg/mL
same,MIC,[10],> 128 µg/mL
same,MIC,[11],32 µg/mL
same,IC50,[12],44 nM
same,MIC,[13],> 128 µg/mL
same,MIC,[14],32 µg/mL
same,MIC,[15],> 128 µg/mL
same,IC50,[16],42 nM
same,MIC,[17],> 128 µg/mL
same,MIC,[18],16 µg/mL
same,MIC,[19],16 µg/mL
same,MIC,[20],32 µg/mL
same,MIC,[21],> 128 µg/mL
same,MIC,[22],> 128 µg/mL
same,MIC,[23],> 128 µg/mL
same,MIC,[24],> 128 µg/mL
same,MIC,[25],> 128 µg/mL
same,MIC,[26],> 128 µg/mL
same,MIC,[27],> 128 µg/mL
same,MIC,[28],> 128 µg/mL
C[C@H](N)C(=O)N(C)[C@@H](C)[C@H](NC(=O)[C@H](C)NC(=O)N[C@@H](Cc1c[nH]c2ccccc12)C(=O)O)C(=O)N/C=C1/CC(O)[C@H](n2ccc(=O)[nH]c2=O)O1 (stereo not given in full),IC50,[16],22 nM
C[C@@H]([C@H](NC(=O)[C@H](CC[S+](C)[O-])NC(=O)N[C@@H](Cc1cccc(O)c1)C(=O)O)C(=O)N/C=C1\O[C@@H](n2ccc(=O)[nH]c2=O)[C@H](O)[C@@H]1O)N(C)C(=O)[C@@H](N)Cc1cccc(O)c1 (stereo not given in full),MIC,[29],32 µg/mL
same,IC50,[12],4.7 nM
C[C@@H](O)[C@H](NC(=O)N[C@@H](Cc1c[nH]c2ccccc12)C(=O)O)C(=O)N[C@H](C(=O)N/C=C1\O[C@@H](n2ccc(=O)[nH]c2=O)[C@H](O)[C@@H]1O)[C@H](C)N(C)C(=O)[C@@H](N)Cc1cccc(O)c1,IC50,[12],1.8 nM
same,MIC,[19],32 µg/mL
C[C@@H]([C@H](NC(=O)[C@H](Cc1c[nH]c2ccccc12)NC(=O)N[C@@H](Cc1c[nH]c2ccccc12)C(=O)O)C(=O)N/C=C1\O[C@@H](n2ccc(=O)[nH]c2=O)[C@H](O)[C@@H]1O)N(C)C(=O)[C@@H](N)Cc1cccc(O)c1,IC50,[12],0.44 nM
same,MIC,[19],32 µg/mL
CSCC[C@H](NC(=O)N[C@@H](Cc1cccc(O)c1)C(=O)O)C(=O)N[C@H](C(=O)N/C=C1\O[C@@H](n2ccc(=O)[nH]c2=O)[C@H](O)[C@@H]1O)[C@H](C)N(C)C(=O)[C@@H](N)Cc1cccc(O)c1,MIC,[1],8 µg/mL
same,MIC,[30],> 128 µg/mL
same,MIC,[2],8 µg/mL
same,MIC,[3],8 µg/mL
same,MIC,[4],8 µg/mL
same,IC50,[5],> 100000 nM
same,MIC,[31],> 128 µg/mL
same,MIC,[32],> 64 µg/mL
same,MIC,[6],> 128 µg/mL
same,MIC,[7],> 128 µg/mL
same,MIC,[8],8 µg/mL
same,MIC,[9],16 µg/mL
same,Ratio,[33],8
same,MIC,[10],16 µg/mL
same,MIC,[11],4 µg/mL
same,IC50,[12],1.3 nM
same,MIC,[13],16 µg/mL
same,MIC,[14],8 µg/mL
same,MIC,[34],> 64 µg/mL
same,MIC,[15],8 µg/mL
same,MIC,[17],32 µg/mL
same,MIC,[18],4 µg/mL
same,MIC,[19],4 µg/mL
same,MIC,[20],4 µg/mL
same,MIC,[35],> 64 µg/mL
same,MIC,[21],16 µg/mL
same,MIC,[22],64 µg/mL
same,MIC,[23],> 128 µg/mL
same,MIC,[24],16 µg/mL
same,MIC,[25],32 µg/mL
same,MIC,[26],32 µg/mL
same,MIC,[27],16 µg/mL
same,MIC,[28],16 µg/mL
C[C@@H]([C@H](NC(=O)[C@H](CC(=O)O)NC(=O)N[C@@H](Cc1c[nH]c2ccccc12)C(=O)O)C(=O)N/C=C1\O[C@@H](n2ccc(=O)[nH]c2=O)[C@H](O)[C@@H]1O)N(C)C(=O)[C@@H](N)Cc1cccc(O)c1,IC50,[12],7.6 nM
same,MIC,[19],> 128 µg/mL
